Measurements taken from PMC4337988 (Science (New York, N.Y.), 2014).

Experiments:
[1] = biological target: BcPyrR ([Bacillus] caldolyticus, UniProt P41007); assay: SEC-MALS; assay type: binding; settings: 50 mM Tris pH 7.5, 150 mM NaCl, 1 mM DTT, room temperature; allosteric
[2] = biological target: BsPyrR (Bacillus subtilis, UniProt P39765); assay: SEC-MALS; assay type: binding; settings: 50 mM Tris pH 7.5, 150 mM NaCl, 1 mM DTT, room temperature; allosteric
BsPyrR, sequence (P39765 whole entry): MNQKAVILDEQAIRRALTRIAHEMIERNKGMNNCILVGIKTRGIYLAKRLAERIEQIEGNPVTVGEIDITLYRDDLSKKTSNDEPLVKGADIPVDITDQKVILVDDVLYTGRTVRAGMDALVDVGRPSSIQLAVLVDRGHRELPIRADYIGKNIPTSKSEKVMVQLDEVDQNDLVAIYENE

BcPyrR, sequence (P41007 whole entry): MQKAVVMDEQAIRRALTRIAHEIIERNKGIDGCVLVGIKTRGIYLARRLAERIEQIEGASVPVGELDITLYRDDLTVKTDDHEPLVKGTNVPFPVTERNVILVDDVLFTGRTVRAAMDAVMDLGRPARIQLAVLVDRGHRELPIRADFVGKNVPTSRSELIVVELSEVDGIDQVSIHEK

SMILES	SEC-MALS (oligomeric state shift) [1]	SEC-MALS (oligomeric state shift) [2]
Nc1nc2c(ncn2[C@@H]2O[C@H](COP(=O)(O)O)[C@@H](O)[C@H]2O)c(=O)[nH]1 [GMP]	We analysed the oligomeric state of BsPyrR and BcPyrR by SEC-MALS upon addition of allosteric ligands	
O=c1ccn([C@@H]2O[C@H](COP(=O)(O)O)[C@@H](O)[C@H]2O)c(=O)[nH]1 [UMP]	both UMP and GMP stabilize the tetrameric state of PyrR	both UMP and GMP stabilize the tetrameric state of PyrR
